From patent publication US20240226107A1, “UBIQUITIN-SPECIFIC PROTEASE 1 (USP1) INHIBITOR” (SIMCERE ZAIMING PHARMACEUTICAL CO., LTD., priority 2021, published 2024) come the findings set out here.

Experiment [1] deals with USP1 (Recombinant Human His6-USP1/His6-UAF1 Complex Protein) (Homo sapiens (Human), UniProt O94782). Briefly: In vitro activity assay for USP1 (Ub-CHOP2-Reporter deubiquitination assay). Type of experiment: biochemical. The conditions noted are these: 0.5 h incubation at room temperature, read-out: In vitro inhibitory activity of USP1 IC50. As to the method: The assay kit (Ub-CHOP2-Reporter Deubiquitination Assay Kit) was purchased from Lifesensors, with Cat. No. of PR1101. The assay kit was subpackaged and stored at −80° C.
Each compound to be tested was dissolved with DMSO to 10 mM. The compound and pure DMSO (with a total volume of 50 nL) were loaded to each well of the 384-well plate by using an ECHO instrument to obtain gradient-diluted sample concentrations at different ratios. The enzyme was diluted with a freshly prepared reaction solution (20 mM Tris-HCl (pH 8.0), 2 mM CaCl2, 2 mM β-mercaptoethanol, 0.05% CHAPS, and ddH2O). To each well, 5 μL of diluted enzyme reaction solution was added, then the plate was centrifuged and oscillated to mix the enzyme and the compound, and the mixture was centrifuged again and placed on ice. The kit reporter system and the substrate were diluted with the reaction solution, then 5 μL of diluted liquid was added to each well, and mixed by centrifugation. The mixture was incubated at room temperature for 0.5 h. […] The inhibitory activity (IC50 values) of the compound on enzyme activity was calculated by using a four-parameter Logistic Model. […] A, B, C, and D are four parameters.

pIC50: −log10 of the molar value.

The pIC50 is −log10 of the IC50, conventionally taken in molar units. For orientation: GI50 means the concentration that inhibits growth by half. Read a high GI50 as lower sensitivity of the cells.
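Throughout, for GI50: MDA-MB-436 proliferation over 7 days with compound, viability read as ATP luminescence (CellTiter-Glo), inhibition relative to DMSO-only wells, day 0 signal as background, GI50 from four-parameter fit.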

USP1 (Recombinant Human His6-USP1/His6-UAF1 Complex Protein), sequence (O94782 whole entry): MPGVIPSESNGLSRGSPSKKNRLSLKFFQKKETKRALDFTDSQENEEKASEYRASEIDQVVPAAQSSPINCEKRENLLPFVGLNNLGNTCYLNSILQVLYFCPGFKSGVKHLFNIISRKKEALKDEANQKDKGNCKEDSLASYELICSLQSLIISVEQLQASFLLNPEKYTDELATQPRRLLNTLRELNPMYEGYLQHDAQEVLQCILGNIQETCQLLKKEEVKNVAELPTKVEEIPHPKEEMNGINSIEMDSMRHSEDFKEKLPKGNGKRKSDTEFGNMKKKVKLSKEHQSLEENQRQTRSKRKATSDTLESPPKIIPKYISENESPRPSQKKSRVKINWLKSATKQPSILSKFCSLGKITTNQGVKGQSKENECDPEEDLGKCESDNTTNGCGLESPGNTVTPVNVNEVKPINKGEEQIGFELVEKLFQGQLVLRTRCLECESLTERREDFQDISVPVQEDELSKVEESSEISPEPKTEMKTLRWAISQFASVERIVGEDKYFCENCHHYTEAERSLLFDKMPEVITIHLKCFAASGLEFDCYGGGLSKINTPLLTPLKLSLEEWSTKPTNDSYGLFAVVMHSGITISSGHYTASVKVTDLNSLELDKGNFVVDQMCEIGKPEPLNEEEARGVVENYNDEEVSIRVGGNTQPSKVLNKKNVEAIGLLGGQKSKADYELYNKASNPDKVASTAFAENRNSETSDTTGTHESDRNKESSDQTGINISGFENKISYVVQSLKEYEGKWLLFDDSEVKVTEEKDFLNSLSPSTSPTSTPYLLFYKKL
USP1 (Recombinant Human His6-USP1/His6-UAF1 Complex Protein), sequence (Q8TAF3 whole entry partner): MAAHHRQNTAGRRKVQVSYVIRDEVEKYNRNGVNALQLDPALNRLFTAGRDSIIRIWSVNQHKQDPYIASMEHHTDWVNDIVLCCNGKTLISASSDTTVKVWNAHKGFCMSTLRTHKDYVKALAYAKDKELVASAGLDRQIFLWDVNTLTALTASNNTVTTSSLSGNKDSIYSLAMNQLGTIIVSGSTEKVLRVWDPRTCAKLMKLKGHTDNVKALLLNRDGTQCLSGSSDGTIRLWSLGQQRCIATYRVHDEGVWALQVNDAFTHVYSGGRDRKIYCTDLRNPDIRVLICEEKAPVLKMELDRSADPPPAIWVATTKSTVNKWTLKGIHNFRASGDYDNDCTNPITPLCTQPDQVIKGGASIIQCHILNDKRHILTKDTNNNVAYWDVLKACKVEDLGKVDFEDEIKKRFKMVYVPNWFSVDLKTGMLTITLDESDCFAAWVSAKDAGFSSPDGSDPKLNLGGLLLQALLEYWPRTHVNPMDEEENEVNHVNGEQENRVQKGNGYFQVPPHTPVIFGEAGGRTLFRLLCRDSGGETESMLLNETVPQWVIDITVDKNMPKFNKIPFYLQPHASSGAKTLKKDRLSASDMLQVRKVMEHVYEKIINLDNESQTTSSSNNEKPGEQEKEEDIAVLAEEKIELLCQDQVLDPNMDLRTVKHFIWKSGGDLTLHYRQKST
Description for MDA-MB-436 cells: Assay based on CellTiter-Glo luminescent cell viability assay system.
The assay kit (CellTiter-Glo® Luminescent Cell Viability Assay) was purchased from Promega, with Cat. No. of G7573, and was stored at −30° C. after subpackage. The kit is a homogeneous assay method for assaying the number of viable cells in a culture based on quantitative determination of ATP. The kit produces a luminescence signal proportional to the amount of ATP present, and the amount of ATP is directly proportional to the number of cells in the culture.
The cultured cells were trypsinized, collected and centrifuged, then resuspended at an adjusted concentration in a culture solution (DMEM+10% FBS), and cultured overnight on a 384-well plate (400 cells/20 μl/well) in a cell incubator with 5% CO2 at 37° C. An ECHO instrument was used to added the compound and pure DMSO onto each well of the 384-well plate. The total volume of the compound and DMSO is 100 nL, and the instrument obtains gradient diluted sample concentrations through different ratios. To each well, 30 μL of culture solution was added, and after mixing by centrifugal oscillation and re-centrifugation, the cells were cultured in a cell incubator for 7 days (one column of cells was subjected to CTG assay on the day of dosing). After day 7, 25 μL of CTG assay solution was added to each well, and after mixing by centrifugal oscillation and re-centrifugation, the cells were placed at room temperature away from light for 10 min. In terms of chemiluminescence signals, an Envision plate reader (PerkinElmer, emission wavelength: 400-700 nm) was used to measure a signal in each well. The chemiluminescence value [RLU]cpd on day 7 was obtained for the treatment group, the chemiluminescence value [RLU]cell on day 7 was obtained for the non-treatment group (given DMSO only), and the chemiluminescence value [RLU]background on day 0 was obtained for the parallel non-treatment group (given DMSO only) by CTG assay on day 0. […] In the following equation, x represents the concentration of the compound in a logarithmic form; and F(x) represents an effect value (inhibition rate of proliferation at the concentration): F(x)=(A+((B−A)/(1+((C/x)^D)))). A, B, C, and D are four parameters.

As for `CCN1C(=O)CN(Cc2ccc(-c3nc(C(F)(F)F)cn3CC)cc2)c2nc(-c3c(OC)ncnc3C3CC3)ncc21` [Compound 34, 2-(4-cyclopropyl-6-methoxypyrimidin-5-yl)-5-ethyl-8-(4-(1-ethyl-4-(trifluoromethyl)-1H-imidazol-2-yl)benzyl)-7,8-dihydropteridin-6(5H)-one], in experiment [1], the pIC50 was 7.72. In addition, the GI50 in the experiment with MDA-MB-436 cells stood at 39.6 nM.

As to `C#CC1(C)OC(=O)N(Cc2ccc(-c3nc(C(F)(F)F)cn3C)c(F)c2)c2nc(-c3c(OC)ncnc3C3CC3)ncc21` (centres unmarked) [Compound 59, 7-(4-cyclopropyl-6-methoxypyrimidin-5-yl)-4-ethynyl-1-(3-fluoro-4-(1-methyl-4-(trifluoromethyl)-1H-imidazol-2-yl)benzyl)-4-methyl-1,4-dihydro-2H-pyrimido[4,5-d][1,3]oxazin-2-one], in experiment [1], the pIC50 is 7.87.

In turn, `COc1ncnc(C2CC2)c1-c1ncc2c(n1)N(Cc1ccc(-c3nc(C(F)(F)F)cn3C)cc1F)CCO2` [Compound 9, 2-(4-cyclopropyl-6-methoxypyrimidin-5-yl)-8-(2-fluoro-4-(1-methyl-4-(trifluoromethyl)-1H-imidazol-2-yl)benzyl)-7,8-dihydro-6H-pyrimido[5,4-b][1,4]oxazine] showed a GI50 with MDA-MB-436 cells of 50.4 nM.

`COc1ncnc(C2CC2)c1-c1ncc2c(n1)N(Cc1ccc(-c3nc(C(F)(F)F)cn3C)cc1)CCO2` [Compound 2, 2-(4-cyclopropyl-6-methoxypyrimidin-5-yl)-8-(4-(1-methyl-4-(trifluoromethyl)-1H-imidazol-2-yl)benzyl)-7,8-dihydro-6H-pyrimido[5,4-b][1,4]oxazine]: in the experiment with MDA-MB-436 cells, the GI50 was 20.9 nM.

With `COc1ncnc(C2CC2)c1-c1ncc2c(n1)N(Cc1ccc(-c3nc(C(F)(F)F)cn3C)c(F)c1)C(=O)OC2(C)C` [Compound 49, 7-(4-cyclopropyl-6-methoxypyrimidin-5-yl)-4,4-dimethyl-1-(3-fluoro-4-(1-methyl-4-(trifluoromethyl)-1H-imidazol-2-yl)benzyl)-1,4-dihydro-2H-pyrimido[4,5-d][1,3]oxazin-2-one], in experiment [1], the pIC50 is 7.48.

Consider `COc1ncnc(C2CC2)c1-c1ncc2c(n1)N(Cc1ccc(-c3nc(C(F)(F)F)cn3C)c(F)c1)N(C)C(=O)N2C` [Compound 84, 7-(4-cyclopropyl-6-methoxypyrimidin-5-yl)-1-(3-fluoro-4-(1-methyl-4-(trifluoromethyl)-1H-imidazol-2-yl)benzyl)-2,4-dimethyl-1,4-dihydropyrimido[5,4-e][1,2,4]triazin-3(2H)-one], for which, in experiment [1], the pIC50 was 7.16.

`COc1ncnc(C2CC2)c1-c1ncc2c(n1)N(Cc1ccc(-n3nc(C(F)(F)F)cc3C)cc1)CC(=O)N2C1CC1` [Compound 72, 2-(4-cyclopropyl-6-methoxypyrimidin-5-yl)-8-(4-(5-methyl-3-(trifluoromethyl)-1H-pyrazol-1-yl)benzyl)-5-cyclopropyl-7,8-dihydropteridin-6(5H)-one]: in experiment [1], the pIC50 is 7.42.

With `COc1ncnc(C2CC2)c1-c1ncc2c(n1)N(Cc1ccc3c(c1)CCCn1cc(C(F)(F)F)nc1-3)CC(=O)N2C1CC1` [Compound 48, 5-cyclopropyl-2-(4-cyclopropyl-6-methoxypyrimidin-5-yl)-8-((2-(trifluoromethyl)-6,7-dihydro-5H-benzo[c]imidazo[1,2-a]azepin-9-yl)methyl)-7,8-dihydropteridin-6-(5H)-one], in experiment [1], the pIC50 is 7.58.

Consider `COc1ncnc(C2CC2)c1-c1ncc2c(n1)N(Cc1ccc(-c3nc(C(F)(F)F)cn3C)c(F)c1)C(=O)OC21CC1` [Compound 51, 7′-(4-cyclopropyl-6-methoxypyrimidin-5-yl)-1′-(3-fluoro-4-(1-methyl-4-(trifluoromethyl)-1H-imidazol-2-yl)benzyl)spiro[cyclopropane-1,4′-pyrimido[4,5-d][1,3]oxazine]-2′(1′H)-one], for which, in experiment [1], the pIC50 is 7.86.

Turning to `Cc1cnc(-c2ccccc2C(C)C)nc1NCc1ccc(-n2ccnn2)cc1` [ML323, reference compound], the GI50 in the experiment on MDA-MB-436 cells worked out at 1820 nM.

Consider `COc1ncnc(C2CC2)c1-c1ncc2c(n1)N(Cc1ccc3c(c1)CCCn1cc(C(F)(F)F)nc1-3)CC(=O)N2C(C)C` [Compound 47, 2-(4-cyclopropyl-6-methoxypyrimidin-5-yl)-5-isopropyl-8-((2-(trifluoromethyl)-6,7-dihydro-5H-benzo[c]imidazo[1,2-a]azepin-9-yl)methyl)-7,8-dihydropteridin-6(5H)-one], for which, in experiment [1], the pIC50 was 7.34.

For `COc1ncnc(C2CC2)c1-c1ncc2c(n1)N(Cc1ccc(-c3nc(C(F)(F)F)cn3C)c(C(F)(F)F)c1)CCO2` [Compound 64], in experiment [1], the pIC50 was 7.64.

`Cc1cc(C(F)(F)F)nn1-c1ccc(CN2C(=O)OC(C)(C)c3cnc(-c4c(OC(F)F)ncnc4C4CC4)nc32)cc1` [Compound 75, 7-(4-cyclopropyl-6-difluoromethoxypyrimidin-5-yl)-4,4-dimethyl-1-(4-(5-methyl-3-(trifluoromethyl)-1H-pyrazol-1-yl)benzyl)-1,4-dihydro-2H-pyrimido[4,5-d][1,3]oxazin-2-one]: in experiment [1], the pIC50 was 7.83.

As for `CC(C)c1ncccc1-c1ncc2c(n1)N(Cc1ccc(-c3nc(C(F)(F)F)cn3C)cc1)CC(=O)N2` [Compound 4, 2-(2-isopropylpyridin-3-yl)-8-(4-(1-methyl-4-(trifluoromethyl)-1H-imidazol-2-yl)benzyl)-7,8-dihydropteridin-6(5H)-one], the pIC50 in experiment [1] is 7.36.

On to `COc1ncnc(C2CC2)c1-c1ncc2c(n1)N(Cc1ccc(-n3nc(C(F)(F)F)cc3C)cc1)C(=O)OC21CC1` [Compound 53, 7′-(4-cyclopropyl-6-methoxypyrimidin-5-yl)-1′-(4-(5-methyl-3-(trifluoromethyl)-1H-pyrazol-1-yl)benzyl)spiro[cyclopropane-1,4′-pyrimido[4,5-d][1,3]oxazine]-2′(1′H)-one], for which the pIC50 in experiment [1] was 8.05.

With `COc1ncnc(C2CC2)c1-c1ncc2c(n1)N(Cc1ccc(-n3nc(C(F)(F)F)cc3C)cc1)C(=O)OC21COC1` [Compound 54, 7′-(4-cyclopropyl-6-methoxypyrimidin-5-yl)-1′-(4-(5-methyl-3-(trifluoromethyl)-1H-pyrazol-1-yl)benzyl)spiro[oxetane-3,4′-pyrimido[4,5-d][1,3]oxazine]-2′(1′H)-one], in experiment [1], the pIC50 is 7.63.

In the experiment with MDA-MB-436 cells, `COc1ncnc(C2CC2)c1-c1ncc2c(n1)N(Cc1ccc(-c3nc(C(F)(F)F)cn3C)c(F)c1)CCO2` [Compound 32, 2-(4-cyclopropyl-6-methoxypyrimidin-5-yl)-8-(3-fluoro-4-(1-methyl-4-(trifluoromethyl)-1H-imidazol-2-yl)benzyl)-7,8-dihydro-6H-pyrimido[5,4-b][1,4]oxazine] returned a GI50 of 11.4 nM.

The compound `COc1ncnc(C2CC2)c1-c1ncc2c(n1)N(Cc1ccc(-c3nc(C(F)(F)F)cn3C)cc1)C(=O)CO2` [Compound 6, 2-(4-cyclopropyl-6-methoxypyrimidin-5-yl)-8-(4-(1-methyl-4-(trifluoromethyl)-1H-imidazol-2-yl)benzyl)-6H-pyrimido [5,4-b][1,4]oxazin-7(8H)-one] had a GI50 in the experiment on MDA-MB-436 cells of 420 nM.

On to `COc1ncnc(C2CC2)c1-c1ncc2c(n1)N(Cc1ccc(-n3nc(C(F)(F)F)cc3C)cc1)C(=O)OC21CCC1` [Compound 55, 7′-(4-cyclopropyl-6-methoxypyrimidin-5-yl)-1′-(4-(5-methyl-3-(trifluoromethyl)-1H-pyrazol-1-yl)benzyl)spiro[cyclobutane-1,4′-pyrimido[4,5-d][1,3]oxazin]-2′(1′H)-one], for which the pIC50 in experiment [1] was 8.06.
